Laboratory results taken from patent EP0098942A1, “Optically active imidazolylpropanol compounds, and their production and use” (SUMITOMO CHEMICAL COMPANY, LIMITED, priority 1982, dated 1984).

Columns and labels:
[1] = tested on: Candida albicans, strain KB-8 (clinical isolate); test: In vitro inhibition of pseudomycelium formation; assay type: cell-based; details: effective dose to inhibit formation of pseudomycelium, light microscopy at 72 hours after inoculation, Eagle's MEM, 37°C, 5 % CO2, read-out: Minimum effective dose
Method: Candida albicans, strain KB-8 (clinical isolate), was maintained on Sabouraud's agar slants at room temperature. Yeast cells were grown at 37°C on Sabouraud's agar and a loopful from a 24 hours' slant was inoculated in 4.5 ml of Sabouraud's broth and cultured at 37°C for 24 hours. A 0.5 ml aliquot of this culture was inoculated in 100 ml of a casein hydrolysate yeast-extract glucose medium (CYG medium). Cells were grown at 37°C aerobically in a reciprocating shaker for 48 hours. From this culture, a 0.2 ml aliquot was again inoculated in 100 ml CYG medium and grown for another 24 hours at 37°C while shaking.
The pseudomycelium growth-promoting medium consisted of Eagle's minimal essential medium supplemented with non-essential amino acids and sodium bicarbonate (2 g/liter). Yeast cells were seeded at densities of 1.0 x 10^5/ml in sterile culture tubes (010 x 100 mm) containing 3 ml of medium. Cells were grown in a humidified atmosphere of 5 % C02 in air at 37°C.
The effects of the test compound were evaluated . under the following conditions: the cultures were exposed to the test compound in doses ranging from […] to 10^-4 M; the solvent for the test compound was added as an aqueous solution. Pseudomycelium development was observed by light microscopy at 72 hours after inoculation.

Candida albicans KB-8 = test: Number of viable cells in the kidney of Candida-infected mice; assay type: in vivo, DDY strain male mice; details: per os, total dose 20 mg/kg; for Medicated group, number of cells in kidney (cell/g): given immediately and 5 hours after infection, kidneys taken 24 hours after infection; for Medicated/ Non-medicated (logarithmic value): kidney cell count 24 hours after infection, non-medicated group 1.45x10^5 cell/g
Method: Candida albicans KB-8 was cultured on a Sabouraud's agar plate admixed with blood in a concentration of 5 % (v/v) - at 30°C for 4 days, suspended in physiologically saline solution and diluted to approximately 10,000,000 cells/ml. DDY strain male mice were […] via the tail vein with 0.2 ml of this suspension.
The animals were orally medicated with the test compound in the form of 0,5 % (w/v) methylcellulose supension at a total dose of 20 mg per kg of the body weight immediately and 5 hours after the infection.
After 24 hours from the infection, the animals were sacrificed, and the kidneys were taken out. After the kidneys were homogenized in 4 fold sterilized physiologically saline solution, a certain amount of the suspension was scattered on a Sabouraud's agar plate and cultured at 37°C for 48 hours. Then, the number of colonies was counted, the number of cells per one gram of the kidney was calculated, and the difference between the calculated numbers in the medicated group and in the non- medicated group was expresed by a logarithmic value.

Row | SMILES | minimal effective concentration [1] | Medicated group, number of cells in kidney (cell/g) (Candida albicans KB-8) | Medicated/ Non-medicated (logarithmic value) (Candida albicans KB-8)
1 | CCCCSC[C@](O)(Cn1ccnc1)c1ccc(Cl)cc1Cl [I (n=3), (R)-3-(n-butylthio)-2-(2,4-dichlorophenyl)-1-(imidazol-1-yl)-2-propanol] | 0.001 µM | 1.41x10^3 cell/g | -2.01
2 | CCCCSC[C@@](O)(Cn1ccnc1)c1ccc(Cl)cc1Cl [B, (S)-3-(n-butylthio)-2-(2,4-dichlorophenyl)-1-(imidazol-1-yl)-2-propanol] | 1 µM | 1.82x10^4 cell/g | -0.90
3 | CCCCSCC(O)(Cn1ccnc1)c1ccc(Cl)cc1Cl (racemic) [A] | 0.1 µM | 1.86x10^3 cell/g | -1.89
